Source: US20250115598A1 (Anaxis Pharma Pty Ltd, priority 2021, published 2025)
Read-outs that look alike come from different tables or passages of the source.

Columns and labels:
human RIPK1 = human RIPK1 (Homo sapiens (Human), UniProt Q13546); experiment: KINOMEscan binding assay, human RIPK1; conditions: Table 21
Method: (§1) Binding affinity of the test compounds for human MLKL (full length), mouse MLKL (full length), human RIPK1 and human RIPK3 was determined using the KINOMEscan™ technology developed by DiscoverX (USA; http://www.discoverx.com). The assay was conducted according to manufacturer instructions.
(§2) Kinase assays. For most assays, kinase-tagged T7 phage strains were grown in parallel in 24-well blocks in an E. coli host derived from the BL21 strain. E. coli were grown to log-phase and infected with T7 phage from a frozen stock (multiplicity of infection=0.4) and incubated with shaking at 32° C. until lysis (90-150 minutes). The lysates were centrifuged (6,000×g) and filtered (0.2 μm) to remove cell debris. The remaining kinases were produced in HEK-293 cells and subsequently tagged with DNA for qPCR detection. […] The liganded beads were blocked with excess biotin and washed with blocking buffer (SeaBlock (Pierce), 1% BSA, 0.05% Tween 20, 1 mM DTT) to remove unbound ligand and to reduce non-specific phage binding. […] All reactions were performed in polypropylene 384-well plates in a final volume of 20 μL. […] The kinase concentration in the eluates was measured by qPCR.
(§3) An 11-point 3-fold serial dilution of each test compound was prepared in 100% DMSO at 100× final test concentration and subsequently diluted to 1× in the assay (final DMSO concentration=1%). Most Kos were determined using a compound top concentration=30,000 nM.
(§4) KD for each test compound was calculated with a standard dose-response curve using the Hill equation (equation (1)): […]
(§5) The Hill Slope was set to −1.
(§6) Curves were fitted using a non-linear least square fit with the Levenberg-Marquardt algorithm.

human RIPK3 = human RIPK3 (Homo sapiens (Human), UniProt Q9Y572); experiment: KINOMEscan binding assay, human RIPK3; conditions: Table 21
Method: as §1, §2, §3, §4, §5, §6

human MLKL (full length) = human MLKL (full length) (Homo sapiens (Human), UniProt Q8NB16); experiment: KINOMEscan binding assay, human MLKL (full length)
Method: as §1, §2, §3, §4, §5, §6

human RIPK3, sequence (Q9Y572 whole entry): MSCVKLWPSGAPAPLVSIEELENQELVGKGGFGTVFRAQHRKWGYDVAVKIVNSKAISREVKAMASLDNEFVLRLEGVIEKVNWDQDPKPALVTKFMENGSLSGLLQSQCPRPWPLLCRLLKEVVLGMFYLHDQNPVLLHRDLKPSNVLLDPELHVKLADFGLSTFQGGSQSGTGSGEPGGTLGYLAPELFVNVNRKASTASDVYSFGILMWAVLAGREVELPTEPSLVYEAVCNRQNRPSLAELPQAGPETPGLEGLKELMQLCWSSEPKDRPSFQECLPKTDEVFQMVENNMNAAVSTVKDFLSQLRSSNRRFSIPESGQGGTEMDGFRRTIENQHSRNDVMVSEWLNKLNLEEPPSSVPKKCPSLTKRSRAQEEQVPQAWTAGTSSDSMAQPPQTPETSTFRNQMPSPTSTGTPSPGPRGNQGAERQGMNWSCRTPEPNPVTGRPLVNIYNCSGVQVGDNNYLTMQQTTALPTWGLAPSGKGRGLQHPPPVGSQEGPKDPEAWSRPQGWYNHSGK
human RIPK1, sequence (Q13546 whole entry): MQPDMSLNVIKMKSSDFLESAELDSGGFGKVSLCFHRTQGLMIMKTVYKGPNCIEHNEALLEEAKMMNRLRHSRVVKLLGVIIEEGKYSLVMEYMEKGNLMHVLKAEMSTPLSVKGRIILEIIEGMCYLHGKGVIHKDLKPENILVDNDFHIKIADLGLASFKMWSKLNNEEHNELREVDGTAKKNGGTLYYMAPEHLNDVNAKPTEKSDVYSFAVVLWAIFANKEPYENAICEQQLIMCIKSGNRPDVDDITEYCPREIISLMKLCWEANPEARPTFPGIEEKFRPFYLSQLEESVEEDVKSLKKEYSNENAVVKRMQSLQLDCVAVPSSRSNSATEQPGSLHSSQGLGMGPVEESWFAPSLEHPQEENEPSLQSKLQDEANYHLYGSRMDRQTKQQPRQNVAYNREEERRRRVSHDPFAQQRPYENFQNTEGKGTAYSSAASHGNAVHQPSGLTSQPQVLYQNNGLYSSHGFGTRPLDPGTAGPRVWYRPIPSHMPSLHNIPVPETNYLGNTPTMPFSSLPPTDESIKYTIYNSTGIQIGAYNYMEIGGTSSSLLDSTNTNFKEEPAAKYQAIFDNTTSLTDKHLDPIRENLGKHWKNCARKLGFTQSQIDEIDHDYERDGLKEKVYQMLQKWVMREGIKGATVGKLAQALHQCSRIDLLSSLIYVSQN
human MLKL (full length), sequence (Q8NB16 whole entry): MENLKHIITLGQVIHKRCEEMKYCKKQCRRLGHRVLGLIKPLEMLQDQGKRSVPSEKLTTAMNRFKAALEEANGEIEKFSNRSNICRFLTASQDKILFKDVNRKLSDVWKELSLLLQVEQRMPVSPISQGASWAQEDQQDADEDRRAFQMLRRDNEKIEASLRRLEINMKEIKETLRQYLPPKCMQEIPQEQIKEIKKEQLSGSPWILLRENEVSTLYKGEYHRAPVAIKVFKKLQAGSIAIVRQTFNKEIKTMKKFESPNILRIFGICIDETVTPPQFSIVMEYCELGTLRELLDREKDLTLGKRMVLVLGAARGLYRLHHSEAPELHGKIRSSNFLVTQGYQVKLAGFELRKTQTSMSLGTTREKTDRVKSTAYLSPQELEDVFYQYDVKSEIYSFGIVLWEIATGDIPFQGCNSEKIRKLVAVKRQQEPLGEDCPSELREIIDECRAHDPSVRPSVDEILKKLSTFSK

Row | SMILES | Kd (human RIPK1) | Kd (human RIPK3) | Kd (human MLKL (full length); hMLKL, Table 25, read-out: MLKL (KD)) | Kd (human MLKL (full length); KINOMEscan, Table 21, read-out: Human MLKL (full-length) (KD))
1 | C[C@H](Oc1cc(-c2nn(C)c3c(-c4ccc(N5CCOCC5)nc4)cnc(N)c23)ccc1NS(=O)(=O)C(F)F)c1ccc(F)cc1 [Compound 115, (S)-N-(4-(4-amino-1-methyl-7-(6-morpholinopyridin-3-yl)-1H-pyrazolo[4,3-c]pyridin-3-yl)-2-(1-(4-fluorophenyl)ethoxy)phenyl)-1,1-difluoromethanesulfonamide] | > 10 µM | > 10 µM |  | 
2 | Cc1nn(C2CCN(C)C(C)(C)C2)cc1-c1cnc(N)c2c(-c3ccc(NS(=O)(=O)C(F)F)c(O[C@@H](C)c4ccc(F)cc4)c3)nn(C)c12 (stereo partly drawn) [Compound 156, N-(4-(4-amino-1-methyl-7-(3-methyl-1-(1,2,2-trimethylpiperidin-4-yl)-1H-pyrazol-4-yl)-1H-pyrazolo[4,3-c]pyridin-3-yl)-2-((S)-1-(4-fluorophenyl)ethoxy)phenyl)-1,1-difluoromethanesulfonamide] | > 10 µM | > 10 µM |  | 
3 | C[C@H](Oc1cc(-c2nn(C)c3c(-c4ccc5c(cnn5C)c4)cnc(N)c23)ccc1NS(=O)(=O)C(F)F)c1ccc(F)cc1 [Compound 166, (S)-N-(4-(4-amino-1-methyl-7-(1-methyl-1H-indazol-5-yl)-1H-pyrazolo[4,3-c]pyridin-3-yl)-2-(1-(4-fluorophenyl)ethoxy)phenyl)-1,1-difluoromethanesulfonamide] | > 10 µM | > 10 µM |  | 
4 | C[C@H](Oc1cc(-c2nn(C)c3c(-c4cnn(C5CCN(CC(F)(F)F)C(C)(C)C5)c4)cnc(N)c23)ccc1NS(=O)(=O)C(F)F)c1ccc(F)cc1 (stereo partly drawn) [Compound 167, N-(4-(4-amino-7-(1-(2,2-dimethyl-1-(2,2,2-trifluoroethyl)piperidin-4-yl)-1H-pyrazol-4-yl)-1-methyl-1H-pyrazolo[4,3-c]pyridin-3-yl)-2-((S)-1-(4-fluorophenyl)ethoxy)phenyl)-1,1-difluoromethanesulfonamide] | > 10 µM | > 10 µM |  | 
5 | C[C@H](Oc1cc(-c2nn(C)c3c(-c4ccccc4)cnc(N)c23)ccc1NS(=O)(=O)C(F)F)c1ccc(F)cc1 [Compound 86, (S)-N-(4-(4-amino-1-methyl-7-phenyl-1H-pyrazolo[4,3-c]pyridin-3-yl)-2-(1-(4-fluorophenyl)ethoxy)phenyl)-1,1-difluoromethanesulfonamide] | > 10 µM | > 10 µM |  | 
6 | C[C@H](Oc1cc(-c2nn(C)c3c(-c4cnn(CC5CCCN5)c4)cnc(N)c23)ccc1NS(=O)(=O)C(F)F)c1ccc(F)cc1 (stereo partly drawn) [Compound 88, N-(4-(4-amino-1-methyl-7-(1-(pyrrolidin-2-ylmethyl)-1H-pyrazol-4-yl)-1H-pyrazolo[4,3-c]pyridin-3-yl)-2-((S)-1-(4-fluorophenyl)ethoxy)phenyl)-1,1-difluoromethane-sulfonamide] | > 10 µM | > 10 µM |  | 
7 | C[C@H](Oc1cc(-c2nn(C)c3c(-c4ccn(C)c4)cnc(N)c23)ccc1NS(=O)(=O)C(F)F)c1ccc(F)cc1 [Compound 126, (S)-N-(4-(4-amino-1-methyl-7-(1-methyl-1H-pyrrol-3-yl)-1H-pyrazolo[4,3-c]pyridin-3-yl)-2-(1-(4-fluorophenyl)ethoxy)phenyl)-1,1-difluoromethanesulfonamide] | > 10 µM | > 10 µM |  | 
8 | C[C@H](Oc1cc(-c2nn(C)c3c(-c4cnn(C5CCN(C)C6(CC6)C5)c4)cnc(N)c23)ccc1NS(=O)(=O)C(F)F)c1ccc(F)cc1 (stereo partly drawn) [Compound 145, N-(4-(4-amino-1-methyl-7-(1-(4-methyl-4-azaspiro[2.5]octan-7-yl)-1H-pyrazol-4-yl)-1H-pyrazolo[4,3-c]pyridin-3-yl)-2-((S)-1-(4-fluorophenyl)ethoxy)phenyl)-1,1-difluoromethanesulfonamide] | > 10 µM | > 10 µM |  | 
9 | C[C@H](Oc1cc(-c2nn(C)c3c(-c4cnc(N(C)C)nc4)cnc(N)c23)ccc1NS(=O)(=O)C(F)F)c1ccc(F)cc1 [Compound 106, (S)-N-(4-(4-amino-7-(2-(dimethylamino)pyrimidin-5-yl)-1-methyl-1H-pyrazolo[4,3-c]pyridin-3-yl)-2-(1-(4-fluorophenyl)ethoxy)phenyl)-1,1-difluoromethanesulfonamide] | > 10 µM | > 10 µM |  | 
10 | C[C@H](Oc1cc(-c2nn(C)c3c(C#CC4CCN(CC(F)(F)F)CC4)cnc(N)c23)ccc1NS(=O)(=O)C(F)F)c1ccc(F)cc1 [Compound 128, (S)-N-(4-(4-amino-1-methyl-7-((1-(2,2,2-trifluoroethyl)piperidin-4-yl)ethynyl)-1H-pyrazolo[4,3-c]pyridin-3-yl)-2-(1-(4-fluorophenyl)ethoxy)phenyl)-1,1-difluoromethane-sulfonamide] | > 10 µM | > 10 µM |  | 
11 | C[C@H](Oc1cc(-c2nn(C)c3c(-c4cnn(C5CCOCC5)c4)cnc(N)c23)ccc1NS(=O)(=O)CC(F)(F)F)c1ccc(F)cc1 [Compound 44, (S)—N-(4-(4-amino-1-methyl-7-(1-(tetrahydro-2H-pyran-4-yl)-1H-pyrazol-4-yl)-1H-pyrazolo[4,3-c]pyridin-3-yl)-2-(1-(4-fluorophenyl)ethoxy)phenyl)-2,2,2-trifluoroethane-1-sulfonamide] | > 10 µM | > 10 µM |  | 
12 | C[C@H](Oc1cc(-c2nn(C)c3c(-c4ccc(C(F)(F)F)nc4)cnc(N)c23)ccc1NS(=O)(=O)C(F)F)c1ccc(F)cc1 [Compound 117, (S)-N-(4-(4-amino-1-methyl-7-(6-(trifluoromethyl)pyridin-3-yl)-1H-pyrazolo[4,3-c]pyridin-3-yl)-2-(1-(4-fluorophenyl)ethoxy)phenyl)-1,1-difluoromethanesulfonamide] | > 10 µM | > 10 µM |  | 
13 | CCS(=O)(=O)Nc1ccc(-c2ncn3ccnc(N)c23)cc1OCc1ccc(F)cc1 [Compound 63, N-(4-(8-Aminoimidazo[1,5-a]pyrazin-1-yl)-2-((4-fluorophenyl)methoxy)phenyl) ethane-1-sulfonamide] | > 10 µM | > 10 µM |  | 
14 | CCS(=O)(=O)Nc1ccc(-c2nn(C)c3c(-c4cnn(C5CCOCC5)c4)cnc(N)c23)cc1O[C@@H](C)c1ccc(F)cc1 [Compound 45, (S)-N-(4-(4-amino-1-methyl-7-(1-(tetrahydro-2H-pyran-4-yl)-1H-pyrazol-4-yl)-1H-pyrazolo[4,3-c]pyridin-3-yl)-2-(1-(4-fluorophenyl)ethoxy)phe-nyl)ethanesulfonamide] | > 10 µM | 0.1 to 10 µM |  | 
15 | C[C@H](Oc1cc(-c2nn(C)c3c(-c4cnn(CC(F)(F)F)c4)cnc(N)c23)ccc1NS(=O)(=O)C(F)F)c1ccc(F)cc1 [Compound 116, (S)-N-(4-(4-amino-1-methyl-7-(1-(2,2,2-trifluoroethyl)-1H-pyrazol-4-yl)-1H-pyrazolo[4,3-c]pyridin-3-yl)-2-(1-(4-fluorophenyl)ethoxy)phenyl)-1,1-difluoromethanesulfonamide] | > 10 µM | > 10 µM |  | 
16 | CC(C)n1nc(-c2ccc(NS(=O)(=O)C(F)F)c(O[C@@H](C)c3ccc(F)cc3)c2)c2c(N)ncc(-c3cnn(C4CCOCC4)c3)c21 [Compound 51, (S)-N-(4-(4-amino-1-isopropyl-7-(1-(tetrahydro-2H-pyran-4-yl)-1H-pyrazol-4-yl)-1H-pyrazolo[4,3-c]pyridin-3-yl)-2-(1-(4-fluorophenyl)ethoxy)phenyl)-1,1-difluoromethane-sulfonamide] | > 10 µM | > 10 µM |  | 
17 | C[C@H](Oc1cc(-c2nn(C)c3c(-c4cnn(C5CCOCC5)c4)cnc(N)c23)ccc1NS(C)(=O)=O)c1ccc(F)cc1 [Compound 119, (S)-N-(4-(4-amino-1-methyl-7-(1-(tetrahydro-2H-pyran-4-yl)-1H-pyrazol-4-yl)-1H-pyrazolo[4,3-c]pyridin-3-yl)-2-(1-(4-fluorophenyl)ethoxy)phe-nyl)methanesulfonamide] | > 10 µM | > 10 µM |  | 
18 | C[C@H](Oc1cc(-c2nn(C)c3c(-c4cnn(C5CCN(C(=O)CCC6CCN(c7cccc8c7C(=O)N(C7CCC(=O)N(C)C7=O)C8=O)CC6)CC5)c4)cnc(N)c23)ccc1NS(=O)(=O)C(F)F)c1ccc(F)cc1 (stereo partly drawn) [Compound 1141, N-[4-(4-amino-1-methyl-7-{1-[1-(3-{1-[2-(1-methyl-2,6-dioxopiperidin-3-yl)-1,3-dioxo-2,3-dihydro-1H-isoindol-4-yl]piperidin-4-yl}propanoyl)piperidin-4-yl]-1H-pyrazol-4-yl}-1H-pyrazolo[4,3-c]pyridin-3-yl)-2-[(1S)-1-(4-fluorophenyl)ethoxy]phenyl]-1,1-difluoromethanesulfonamide] |  |  | < 0.01 µM | 
19 | Cn1nc(-c2ccc(NS(=O)(=O)C(F)F)c(OCc3ccc(F)cc3)c2)c2c(N)ncc(-c3ccncc3)c21 [Compound 14, N-(4-(4-amino-1-methyl-7-(pyridin-4-yl)-1H-pyrazolo[4,3-c]pyridin-3-yl)-2-((4-fluoro-benzyl)oxy)phenyl)-1,1-difluoromethane-sulfonamide] |  |  |  | < 0.001 µM
